ChEMBL document CHEMBL1201862, “PubChem BioAssay data set” (2004)
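Method: 48-hour compound exposure of cells in 96-well plates, five concentrations, linear interpolation of endpoints. GI50 is the concentration that inhibits growth by half.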 Activity calls are given as the source filed them. Cut-off read from the data, not from the text of the source: active = GI50 up to about 1.1 µM and inactive = higher.

What was measured:
Test in all cases: inhibition of tumour cell growth, NCI panel, 48 h
UACC-62 = system: UACC-62
UACC-257 = system: UACC-257
PC-3 = system: PC-3
A498 = system: A498
SN12C = system: SN12C
MDA-MB-435 = system: MDA-MB-435
KM12 = system: KM12
786-0 = system: 786-0
SF-268 = system: SF-268
K562 = system: K562
HCT-15 = system: HCT-15
IGROV-1 = system: IGROV-1
CAKI-1 = system: CAKI-1
HCC 2998 = system: HCC 2998
NCI-H23 = system: NCI-H23
Hs-578T = system: Hs-578T
MDA-N = system: MDA-N
NCI-H460 = system: NCI-H460
MOLT-4 = system: MOLT-4
ACHN = system: ACHN
SNB-19 = system: SNB-19
SK-MEL-5 = system: SK-MEL-5
OVCAR-4 = system: OVCAR-4
SF-295 = system: SF-295
CCRF-CEM = system: CCRF-CEM
U-251 = system: U-251
HCT-116 = system: HCT-116
RPMI-8226 = system: RPMI-8226
M14 = system: M14
UO-31 = system: UO-31
A549 = system: A549
SK-MEL-28 = system: SK-MEL-28
LOX IMVI = system: LOX IMVI
DU-145 = system: DU-145
EKVX = system: EKVX
COLO 205 = system: COLO 205
SW-620 = system: SW-620
RXF 393 = system: RXF 393
T47D = system: T47D
MCF7 = system: MCF7
Malme-3M = system: Malme-3M
SK-OV-3 = system: SK-OV-3
MDA-MB-231 = system: MDA-MB-231
TK-10 = system: TK-10
NCI-H522 = system: NCI-H522
SK-MEL-2 = system: SK-MEL-2
SR = system: SR
OVCAR-5 = system: OVCAR-5
SF-539 = system: SF-539
OVCAR-3 = system: OVCAR-3
HT-29 = system: HT-29
OVCAR-8 = system: OVCAR-8
HOP-62 = system: HOP-62
SNB-75 = system: SNB-75
HOP-92 = system: HOP-92
NCI/ADR-RES = system: NCI/ADR-RES
NCI-H226 = system: NCI-H226

## COc1ccc2c(ccc3c(C(=O)NCCCN(C)CCCNC(=O)c4cn(C)c5c4ccc4cc(OC)ccc45)cn(C)c32)c1
UACC-62
  GI50: 1.77 µM (inactive)
UACC-257
  GI50: 1.57 µM (inactive)
PC-3
  GI50: 1.55 µM (inactive)
A498
  GI50: 28.6 µM (inactive)
SN12C
  GI50: 1.57 µM (inactive)
MDA-MB-435
  GI50: 1.89 µM (inactive)
KM12
  GI50: 1.56 µM (inactive)
786-0
  GI50: 1.49 µM (inactive)
SF-268
  GI50: 1.78 µM (inactive)
K562
  GI50: 0.403 µM (active)
HCT-15
  GI50: 1.32 µM
IGROV-1
  GI50: 1.53 µM (inactive)
CAKI-1
  GI50: 1.64 µM (inactive)
HCC 2998
  GI50: 1.61 µM (inactive)
NCI-H23
  GI50: 1.58 µM (inactive)
Hs-578T
  GI50: 2.33 µM (inactive)
MDA-N
  GI50: 1.53 µM (inactive)
NCI-H460
  GI50: 1.47 µM (inactive)
MOLT-4
  GI50: 2.23 µM (inactive)
ACHN
  GI50: 1.66 µM (inactive)
SNB-19
  GI50: 1.79 µM (inactive)
SK-MEL-5
  GI50: 1.9 µM (inactive)
OVCAR-4
  GI50: 1.71 µM (inactive)
SF-295
  GI50: 2.15 µM (inactive)
CCRF-CEM
  GI50: 1.07 µM (active)
U-251
  GI50: 1.92 µM (inactive)
HCT-116
  GI50: 1.73 µM (inactive)
RPMI-8226
  GI50: 2.35 µM (inactive)
M14
  GI50: 1.59 µM (inactive)
UO-31
  GI50: 1.66 µM (inactive)
A549
  GI50: 1.43 µM (inactive)
SK-MEL-28
  GI50: 1.77 µM (inactive)
LOX IMVI
  GI50: 2.26 µM (inactive)
DU-145
  GI50: 1.67 µM (inactive)
EKVX
  GI50: 1.57 µM (inactive)
COLO 205
  GI50: 2.11 µM (inactive)
SW-620
  GI50: 1.83 µM (inactive)
RXF 393
  GI50: 2.12 µM (inactive)

## C=CC1(c2ccc(-c3ccccc3)cc2)OCCO1
UACC-62
  GI50: 26.1 µM (inactive)
T47D
  GI50: 51.2 µM (inactive)
UACC-257
  GI50: 78.9 µM (inactive)
PC-3
  GI50: 35 µM (inactive)
MCF7
  GI50: 54.6 µM (inactive)
Malme-3M
  GI50: 42.8 µM (inactive)
SN12C
  GI50: 76.2 µM (inactive)
MDA-MB-435
  GI50: 61.2 µM (inactive)
SK-OV-3
  GI50: > 100 µM (inactive)
KM12
  GI50: 41.2 µM (inactive)
786-0
  GI50: 46.8 µM (inactive)
MDA-MB-231
  GI50: > 100 µM (inactive)
SF-268
  GI50: > 100 µM (inactive)
K562
  GI50: 22.9 µM (inactive)
HCT-15
  GI50: 29.5 µM
IGROV-1
  GI50: > 100 µM (inactive)
HCC 2998
  GI50: 63.7 µM (inactive)
TK-10
  GI50: 89.1 µM (inactive)
NCI-H23
  GI50: 34.7 µM (inactive)
NCI-H522
  GI50: 42 µM (inactive)
Hs-578T
  GI50: 23.4 µM (inactive)
MDA-N
  GI50: 50.9 µM (inactive)
SK-MEL-2
  GI50: 16.6 µM (inactive)
NCI-H460
  GI50: > 100 µM (inactive)
MOLT-4
  GI50: 40.6 µM (inactive)
ACHN
  GI50: > 100 µM (inactive)
SNB-19
  GI50: 25.8 µM (inactive)
SR
  GI50: 45.9 µM (inactive)
SK-MEL-5
  GI50: 35 µM (inactive)
OVCAR-4
  GI50: 79.4 µM (inactive)
OVCAR-5
  GI50: 64.4 µM (inactive)
SF-539
  GI50: > 100 µM (inactive)
SF-295
  GI50: > 100 µM (inactive)
CCRF-CEM
  GI50: 11.9 µM (inactive)
OVCAR-3
  GI50: 83.4 µM (inactive)
U-251
  GI50: 54.8 µM (inactive)
HT-29
  GI50: 28.2 µM (inactive)
HCT-116
  GI50: 47.5 µM (inactive)
RPMI-8226
  GI50: > 100 µM (inactive)
M14
  GI50: 59.7 µM (inactive)
UO-31
  GI50: > 100 µM (inactive)
OVCAR-8
  GI50: > 100 µM (inactive)
A549
  GI50: 73.8 µM (inactive)
SK-MEL-28
  GI50: > 100 µM (inactive)
LOX IMVI
  GI50: 58.9 µM (inactive)
DU-145
  GI50: > 100 µM (inactive)
EKVX
  GI50: 49.2 µM (inactive)
COLO 205
  GI50: 31.3 µM (inactive)
HOP-62
  GI50: > 100 µM (inactive)
SW-620
  GI50: 31.2 µM (inactive)
SNB-75
  GI50: 39.1 µM (inactive)
HOP-92
  GI50: 34.8 µM (inactive)
NCI/ADR-RES
  GI50: 65.6 µM (inactive)
NCI-H226
  GI50: 22.9 µM (inactive)
RXF 393
  GI50: 39.4 µM (inactive)
